# From patent US6914045B2, “Glycopeptide antibiotics” (Wyeth Holdings Corporation, priority 2001, dated 2005)
# What was measured:
# Test in all cases: in vitro antibacterial evaluation, MIC by broth dilution
# Assay type in all cases: cell-based
# Enterococcus sp. = conditions: broth dilution, 18 hours at 35° C.
# How it was run: (§1)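 Read-out: the lowest concentration at which the test strain fails to grow. Serial dilutions (64-0.06 μg/mL) in Muller-Hinton II […], 5×10^5 CFU/mL inoculum, NCCLS M7-A2 procedure.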
# Streptococcus sp. = conditions: broth dilution, 18 hours at 35° C.
# How it was run: as §1
# Staphylococcus sp. = conditions: broth dilution, 18 hours at 35° C.; for MIC Staphylococcus aureus (GC 1131): strain GC 1131; for MIC Staphylococcus aureus (GC 3051): strain GC 3051; for MIC Staphylococcus aureus (GC 3053): strain GC 3053; for MIC Staphylococcus aureus (GC 4545): strain GC 4545; for MIC Staphylococcus haemolyticus (GC 4546): strain GC 4546; for MIC Coagulase Negative Staphylococcus (GC 4547): strain GC 4547; for MIC Coagulase Negative Staphylococcus (GC 4548): strain GC 4548; for MIC Coagulase Negative Staphylococcus (GC 4549): strain GC 4549; for MIC Coagulase Negative Staphylococcus (GC 4551): strain GC 4551; for MIC Coagulase Negative Staphylococcus (GC 6257): strain GC 6257
# How it was run: as §1
# Escherichia coli = conditions: for MIC Escherichia coli (ATCC 25922): strain ATCC 25922, 18 hours at 35° C.; for MIC Escherichia coli (GC 4559): strain GC 4559, 18 hours at 35° C.; for MIC Escherichia coli (GC 4560): strain GC 4560, 18 hours at 35° C.
# How it was run: as §1
# [1] = Enterococcus faecalis (GC 2242)
# [2] = Enterococcus faecalis (GC 2691)
# [3] = Enterococcus faecalis (GC 3059)
# [4] = Streptococcus agalactiae (GC 4564)
# [5] = Streptococcus pneumoniae (ATCC 6301)
# [6] = Streptococcus pneumoniae (GC 1894)
# [7] = Streptococcus pyogenes (GC 4563)
compound,measurement,setting,value
CCOc1cc(C2OCC3OC(OC4C(CO)OC(Oc5ccc(CC6NC(=O)C(C(C)c7ccccc7)NC(=O)CNC(=O)C(CO)NC(=O)C(C(O)C7CNC(=N)N7C7OC(CO)C(O)C(O)C7O)NC(=O)C(C(O)C7CNC(=N)N7)NC6=O)cc5)C(O)C4O)C(O)C(O)C3O2)ccc1OC (stereo not shown) [Example 152],MIC Enterococcus avium (GC 4558),Enterococcus sp.; Enterococcus avium (GC 4558),32 µg/mL
same,MIC Enterococcus faecalis (ATCC 29212),Enterococcus sp.; Enterococcus faecalis (ATCC 29212),32 µg/mL
same,MIC Enterococcus faecalis (GC 2242),Enterococcus sp.; [1],32 µg/mL
same,MIC Enterococcus faecalis (GC 2691),Enterococcus sp.; [2],32 µg/mL
same,MIC Enterococcus faecalis (GC 3059),Enterococcus sp.; [3],32 µg/mL
same,MIC Enterococcus faecalis (GC 4552),Enterococcus sp.; Enterococcus faecalis (GC 4552),32 µg/mL
same,MIC Enterococcus faecalis (GC 4553),Enterococcus sp.; Enterococcus faecalis (GC 4553),64 µg/mL
same,MIC Enterococcus faecalis (GC 4554),Enterococcus sp.; Enterococcus faecalis (GC 4554),32 µg/mL
same,MIC Enterococcus faecalis (GC 6189),Enterococcus sp.; Enterococcus faecalis (GC 6189),32 µg/mL
same,MIC Enterococcus faecium (GC 2243),Enterococcus sp.; Enterococcus faecium (GC 2243),32 µg/mL
same,MIC Enterococcus faecium (GC 4556),Enterococcus sp.; Enterococcus faecium (GC 4556),32 µg/mL
same,MIC Enterococcus faecium (GC 4557),Enterococcus sp.; Enterococcus faecium (GC 4557),16 µg/mL
same,MIC Enterococcus faecalis (ATCC 29212),Enterococcus sp.; strain ATCC 29212,32 µg/mL
same,MIC Enterococcus faecalis (GC 2242),Enterococcus sp.; strain GC 2242,32 µg/mL
same,MIC Enterococcus faecium (GC 2243),Enterococcus sp.; strain GC 2243,32 µg/mL
same,MIC Enterococcus faecalis (GC 2691),Enterococcus sp.; strain GC 2691,32 µg/mL
same,MIC Enterococcus faecalis (GC 3059),Enterococcus sp.; strain GC 3059,32 µg/mL
same,MIC Enterococcus faecalis (GC 4552),Enterococcus sp.; strain GC 4552,32 µg/mL
same,MIC Enterococcus faecalis (GC 4553),Enterococcus sp.; strain GC 4553,64 µg/mL
same,MIC Enterococcus faecalis (GC 4554),Enterococcus sp.; strain GC 4554,32 µg/mL
same,MIC Enterococcus faecium (GC 4556),Enterococcus sp.; strain GC 4556,32 µg/mL
same,MIC Enterococcus faecium (GC 4557),Enterococcus sp.; strain GC 4557,16 µg/mL
same,MIC Enterococcus avium (GC 4558),Enterococcus sp.; strain GC 4558,32 µg/mL
same,MIC Enterococcus faecalis (GC 6189),Enterococcus sp.; strain GC 6189,32 µg/mL
same,MIC Streptococcus agalactiae (GC 4564),Streptococcus sp.; [4],8 µg/mL
same,MIC Streptococcus pneumoniae (ATCC 6301),Streptococcus sp.; [5],2 µg/mL
same,MIC Streptococcus pneumoniae (GC 1894),Streptococcus sp.; [6],0.5 µg/mL
same,MIC Streptococcus pneumoniae (GC 4565),Streptococcus sp.; Streptococcus pneumoniae (GC 4565),2 µg/mL
same,MIC Streptococcus pyogenes (GC 4563),Streptococcus sp.; [7],4 µg/mL
same,MIC Streptococcus pneumoniae (ATCC 6301),Streptococcus sp.; strain ATCC 6301,2 µg/mL
same,MIC Streptococcus pneumoniae (GC 1894),Streptococcus sp.; strain GC 1894,0.5 µg/mL
same,MIC Streptococcus pyogenes (GC 4563),Streptococcus sp.; strain GC 4563,4 µg/mL
same,MIC Streptococcus agalactiae (GC 4564),Streptococcus sp.; strain GC 4564,8 µg/mL
same,MIC Streptococcus pneumoniae (GC 4565),Streptococcus sp.; strain GC 4565,2 µg/mL
same,MIC Staphylococcus aureus (GC 1131),Staphylococcus sp.; inoculum 5×10^5 CFU/mL,16 µg/mL
same,MIC Staphylococcus aureus (ATCC 29213),Staphylococcus sp.; strain ATCC 29213,16 µg/mL
same,MIC Staphylococcus aureus (GC 1131),Staphylococcus sp.,16 µg/mL
same,MIC Staphylococcus aureus (GC 3051),Staphylococcus sp.,16 µg/mL
same,MIC Staphylococcus aureus (GC 3053),Staphylococcus sp.,32 µg/mL
same,MIC Staphylococcus aureus (GC 4541),Staphylococcus sp.; strain GC 4541,16 µg/mL
same,MIC Staphylococcus aureus (GC 4542),Staphylococcus sp.; strain GC 4542,16 µg/mL
same,MIC Staphylococcus aureus-SMITH (GC 4543),Staphylococcus sp.; strain GC 4543,8 µg/mL
same,MIC Staphylococcus aureus (GC 4544),Staphylococcus sp.; strain GC 4544,16 µg/mL
same,MIC Staphylococcus aureus (GC 4545),Staphylococcus sp.,8 µg/mL
same,MIC Staphylococcus haemolyticus (GC 4546),Staphylococcus sp.,8 µg/mL
same,MIC Coagulase Negative Staphylococcus (GC 4547),Staphylococcus sp.,8 µg/mL
same,MIC Coagulase Negative Staphylococcus (GC 4548),Staphylococcus sp.,8 µg/mL
same,MIC Coagulase Negative Staphylococcus (GC 4549),Staphylococcus sp.,8 µg/mL
same,MIC Coagulase Negative Staphylococcus (GC 4551),Staphylococcus sp.,16 µg/mL
same,MIC Coagulase Negative Staphylococcus (GC 6257),Staphylococcus sp.,8 µg/mL
same,MIC Staphylococcus aureus-SMITH (GC 4543),Staphylococcus sp.; strain SMITH GC 4543,8 µg/mL
same,MIC Escherichia coli (ATCC 25922),Escherichia coli,>64 µg/mL
same,MIC Escherichia coli (GC 4559),Escherichia coli,>64 µg/mL
same,MIC Escherichia coli (GC 4560),Escherichia coli,8 µg/mL
CC(c1ccccc1)C1NC(=O)CNC(=O)C(CO)NC(=O)C(C(O)C2CNC(=N)N2C2OC(CO)C(O)C(O)C2O)NC(=O)C(C(O)C2CNC(=NC(=O)C(C)(C)C)N2)NC(=O)C(Cc2ccc(OC3OC(CO)C(OC4OC(CO)C(O)C(O)C4O)C(O)C3O)cc2)NC1=O (stereo not shown) [Example 155],MIC Enterococcus faecalis (GC 2242),Enterococcus sp.; [1],0.5 to 1 µg/mL
same,MIC Enterococcus faecalis (GC 2691),Enterococcus sp.; [2],0.5 µg/mL
same,MIC Enterococcus faecalis (GC 3059),Enterococcus sp.; [3],0.5 µg/mL
same,MIC Enterococcus faecalis (ATCC 29212),"Enterococcus sp.; inoculum 5×10^5 CFU/mL, strain ATCC 29212",0.5 to 1 µg/mL
same,MIC Enterococcus faecium (GC 2243),"Enterococcus sp.; inoculum 5×10^5 CFU/mL, strain GC 2243",<0.5 to 1 µg/mL
same,MIC Enterococcus faecalis (GC 4554),"Enterococcus sp.; inoculum 5×10^5 CFU/mL, strain GC 4554",0.5 to 1 µg/mL
same,MIC Enterococcus faecium (GC 4556),"Enterococcus sp.; inoculum 5×10^5 CFU/mL, strain GC 4556",1 to 2 µg/mL
same,MIC Enterococcus faecium (GC 4557),"Enterococcus sp.; inoculum 5×10^5 CFU/mL, strain GC 4557",1 to 2 µg/mL
same,MIC Enterococcus avium (GC 4558),"Enterococcus sp.; inoculum 5×10^5 CFU/mL, strain GC 4558",0.5 to 1 µg/mL
same,MIC Enterococcus faecalis (GC 6189),"Enterococcus sp.; inoculum 5×10^5 CFU/mL, strain GC 6189",0.5 µg/mL
same,MIC Enterococcus faecalis (ATCC 29212),Enterococcus sp.; strain ATCC 29212,0.5 to 1 µg/mL
same,MIC Enterococcus faecalis (GC 2242),Enterococcus sp.; strain GC 2242,0.5 to 1 µg/mL
same,MIC Enterococcus faecium (GC 2243),Enterococcus sp.; strain GC 2243,<0.5 to 1 µg/mL
same,MIC Enterococcus faecalis (GC 2691),Enterococcus sp.; strain GC 2691,0.5 µg/mL
same,MIC Enterococcus faecalis (GC 3059),Enterococcus sp.; strain GC 3059,0.5 µg/mL
same,MIC Enterococcus faecalis (GC 4554),Enterococcus sp.; strain GC 4554,0.5 to 1 µg/mL
same,MIC Enterococcus faecium (GC 4556),Enterococcus sp.; strain GC 4556,1 to 2 µg/mL
same,MIC Enterococcus faecium (GC 4557),Enterococcus sp.; strain GC 4557,1 to 2 µg/mL
same,MIC Enterococcus avium (GC 4558),Enterococcus sp.; strain GC 4558,0.5 to 1 µg/mL
same,MIC Enterococcus faecalis (GC 6189),Enterococcus sp.; strain GC 6189,0.5 µg/mL
same,MIC Streptococcus agalactiae (GC 4564),Streptococcus sp.; [4],<0.12 µg/mL
same,MIC Streptococcus pneumoniae (ATCC 6301),Streptococcus sp.; [5],0.12 µg/mL
same,MIC Streptococcus pneumoniae (GC 1894),Streptococcus sp.; [6],0.12 µg/mL
same,MIC Streptococcus pyogenes (GC 4563),Streptococcus sp.; [7],>0.12 µg/mL
same,MIC Streptococcus pyogenes (ID-3187),Streptococcus sp.; Streptococcus pyogenes (ID-3187),<0.5 µg/mL
same,MIC Streptococcus pneumoniae (ATCC 6301),Streptococcus sp.; strain ATCC 6301,0.12 µg/mL
same,MIC Streptococcus pneumoniae (GC 1894),Streptococcus sp.; strain GC 1894,0.12 µg/mL
same,MIC Streptococcus pyogenes (GC 4563),Streptococcus sp.; strain GC 4563,>0.12 µg/mL
same,MIC Streptococcus agalactiae (GC 4564),Streptococcus sp.; strain GC 4564,<0.12 µg/mL
same,MIC Streptococcus pyogenes (ID-3187),Streptococcus sp.; strain ID-3187,<0.5 µg/mL
same,MIC Staphylococcus aureus (GC 3051),Staphylococcus sp.,0.5 µg/mL
same,MIC Staphylococcus aureus (GC 3053),Staphylococcus sp.,0.5 µg/mL
same,MIC Staphylococcus aureus (GC 4545),Staphylococcus sp.,0.5 to 1 µg/mL
same,MIC Staphylococcus haemolyticus (GC 4546),Staphylococcus sp.,<0.5 to 1 µg/mL
same,MIC Coagulase Negative Staphylococcus (GC 4547),Staphylococcus sp.,<0.5 to 2 µg/mL
same,MIC Coagulase Negative Staphylococcus (GC 4548),Staphylococcus sp.,<0.5 to 1 µg/mL
same,MIC Coagulase Negative Staphylococcus (GC 4549),Staphylococcus sp.,<0.5 to 1 µg/mL
same,MIC Coagulase Negative Staphylococcus (GC 4551),Staphylococcus sp.,<0.5 to 1 µg/mL
same,MIC Coagulase Negative Staphylococcus (GC 6257),Staphylococcus sp.,1 µg/mL
same,MIC Coagulase Negative Staphylococcus (ID-3941),Staphylococcus sp.; strain ID-3941,<0.5 µg/mL
same,MIC Escherichia coli (ATCC 25922),Escherichia coli,>64 µg/mL
same,MIC Escherichia coli (GC 4559),Escherichia coli,>64 µg/mL
same,MIC Escherichia coli (GC 4560),Escherichia coli,0.5 to 2 µg/mL
